Results taken from US20250186408A1, “TREATMENT OF PHARMACORESISTANT EPILEPSY” (Katholieke Universiteit Leuven, priority 2021, published 2025).
Like-named read-outs stand apart in the source and are kept apart here.

Columns and labels:
HTR1B = HTR1B (Homo sapiens, UniProt P28222); assay: cAMP HTR1B Antagonist; settings: for Emax: read-out: Max response
Description: (§1) In vitro pharmacological profiling of compounds was done against 78 functional assays for 47 common off-targets (30) by Eurofins DiscoverX Corporation (Fremont, CA, USA) using their SAFETYscan E/IC50 ELECT service (Cat Ref 87-1003DR, Safety47 Panel Dose Response). […] Compounds were tested in a range of 10 concentrations, following a 3-fold serial dilution, starting from 10 μM.
(§2) cAMP Hunter cell lines were expanded from freezer stocks. Prior to testing, cells were seeded in a total volume of 20 μL into white walled 384-well microplates and incubated at 37° C. cAMP modulation was determined using the DiscoverX HitHunter cAMP XS+ assay. For Gs agonist determination, cells were incubated with sample to induce response. For Gi agonist determination, cells were incubated with sample in the presence of EC80 forskolin to induce response. For both conditions, media was aspirated from cells and replaced with 15 μL 2:1 HBSS/10 mM HEPES:cAMP XS+ Ab reagent. Intermediate dilution of sample stocks was performed to generate 4× sample in assay buffer (containing 4×EC80 forskolin in the case of antagonist determination). 5 μL of 4× sample was added to cells and incubated at 37° C. or room temperature (RT) for 30 or 60 min. Final assay vehicle concentration was 1%. For antagonist determination, cells were pre-incubated with sample followed by agonist challenge at the EC80 concentration. Media was aspirated from cells and replaced with 10 μL 1:1 HBSS/HEPES:cAMP XS+ Ab reagent. 5 μL of 4× compound was added to the cells and incubated at 37° C. or RT for 30 min. 5 μL of 4×EC80 agonist was added to the cells and incubated at 37° C. or RT for 30 or 60 min. For Gi coupled GPCRs, EC80 forskolin was included. […] Microplates were read following signal generation with a PerkinElmer Envision™ instrument for chemiluminescent signal detection. Compound activity was analyzed using CBIS data analysis suite (ChemInnovation, CA).

VEGFR2 = biological target: T1, VEGFR2 (Homo sapiens, UniProt P35968); assay: Binding (KINOMEscan) VEGFR2 Inhibitor; settings: for IC50: read-out: RC50, result type IC50; for Emax: read-out: Max response
T1 construct: purchased Eurofins DiscoverX Corporation 87-1003DR; host or cells: E. coli BL21-derived host (T7 phage) or HEK-293
Description: For most assays, kinase-tagged T7 phage strains were grown in parallel in 24-well blocks in an E. coli host derived from the BL21 strain. E. coli were grown to log-phase and infected with T7 phage from a frozen stock (multiplicity of infection=0.4) and incubated with shaking at 32° C. until lysis (90-150 min). The lysates were centrifuged (6,000×g) and filtered (0.2 μm) to remove cell debris. The remaining kinases were produced in HEK-293 cells and subsequently tagged with DNA for qPCR detection. Streptavidin-coated magnetic beads were treated with biotinylated small molecule ligands for 30 min at RT to generate affinity resins for kinase assays. The liganded beads were blocked with excess biotin and washed with blocking buffer (SeaBlock (Pierce), 1% BSA, 0.05% Tween 20, 1 mM DTT) to remove unbound ligand and to reduce non-specific phage binding. […] All reactions were performed in polypropylene 384-well plates in a final volume of 0.02 mL. […] The beads were then re-suspended in elution buffer (1×PBS, 0.05% Tween 20, 0.5 μM non-biotinylated affinity ligand) and incubated at RT with shaking for 30 min. The kinase concentration in the eluates was measured by qPCR.
The kinase concentration in the eluates was measured by qPCR. qPCR reactions were assembled by adding 2.5 μL of kinase eluate to 7.5 μL of qPCR master mix containing 0.15 μM amplicon primers and 0.15 μM amplicon probe. The qPCR protocol consisted of a 10 min hot start at 95° C., followed by 35 cycles of 95° C. for 15 sec, 60° C. for 1 min.
Binding constants (Kds) were calculated with a standard dose-response curve using the Hill equation: […]

ADRA1A = biological target: T2, ADRA1A (Homo sapiens, UniProt P35348); assay: Calcium Flux ADRA1A Antagonist; settings: for Emax: read-out: Max response
T2 sequence (P35348 1-466): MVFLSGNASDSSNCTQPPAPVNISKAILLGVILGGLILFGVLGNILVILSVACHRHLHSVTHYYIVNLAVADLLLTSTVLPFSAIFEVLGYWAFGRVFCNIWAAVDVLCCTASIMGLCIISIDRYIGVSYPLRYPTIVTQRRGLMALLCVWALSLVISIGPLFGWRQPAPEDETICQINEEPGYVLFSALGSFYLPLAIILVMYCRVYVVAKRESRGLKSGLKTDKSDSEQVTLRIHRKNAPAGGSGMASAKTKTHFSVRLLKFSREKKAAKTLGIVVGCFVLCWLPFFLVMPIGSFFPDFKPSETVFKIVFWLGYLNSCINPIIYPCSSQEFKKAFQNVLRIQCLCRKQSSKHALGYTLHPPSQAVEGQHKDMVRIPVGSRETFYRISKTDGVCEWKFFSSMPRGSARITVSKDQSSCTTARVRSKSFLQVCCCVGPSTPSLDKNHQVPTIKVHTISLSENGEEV
Description: In vitro pharmacological profiling of compounds was done against 78 functional assays for 47 common off-targets (30) by Eurofins DiscoverX Corporation (Fremont, CA, USA) using their SAFETYscan E/IC50 ELECT service (Cat Ref 87-1003DR, Safety47 Panel Dose Response). […] Compounds were tested in a range of 10 concentrations, following a 3-fold serial dilution, starting from 10 μM. The assays were performed utilizing the PathHunter enzyme fragment complementation (EFC) technology, FLIPR®-based cellular screening assays, and KINOMEscan kinase binding assays.
Prior to testing, cells (10,000 cells/well) were expanded from freezer stocks and seeded into a total volume of 50 μL into black walled, clear-bottom, Poly-D-lysine coated 384-well microplates and incubated at 37° C. […] Assays were performed in 1× dye loading buffer consisting of 1× Dye (DiscoverX, Calcium No Wash^PLUS kit, Catalog No. 90-0091), 1× Additive A and 2.5 mM Probenecid in HBSS/20 mM HEPES. Probenecid was prepared fresh. Prior to testing, media was aspirated from cells and replaced with 25 μL dye loading buffer. Cells were incubated for 45 min at 37° C. and then 20 min at RT. For agonist determination, 25 μL of 2× compound in HBSS/20 mM HEPES was added using a FLIPR Tetra (MDS). For antagonist determination, cells were pre-incubated with sample followed by agonist challenge at the EC80 concentration. 25 μL of 2× sample was added and cells were incubated for 30 min at RT in the dark to equilibrate plate temperature. After incubation, antagonist determination was initiated by addition of 25 μL of 1× compound with 3×EC80 agonist using FLIPR. For both agonist and antagonist formats, activity was measure on a FLIPR Tetra (MDS). Calcium mobilization was monitored for 2 min with a 5 sec baseline read.
FLIPR read—Area under the curve, was calculated for the entire 2 min read. Compound activity was analysed using CBIS data analysis suite (ChemInnovation, CA).

nAChR (a4/b2) = nAChR (a4/b2) (Homo sapiens, UniProt P17787+P43681); assay: Ion Channel nAChR (a4/b2) Blocker; type: cell-based; settings: for Emax: Ion Channel nAChR (a4/b2) Blocker, read-out: Max response
OPRD1 = OPRD1 (Homo sapiens, UniProt P41143); assay: cAMP OPRD1 Agonist; settings: for Emax: read-out: Max response
Description: as §1, §2

AR = biological target: T3, AR (Homo sapiens, UniProt P10275); assay: NHR Nuclear Translocation AR Agonist; type: cell-based
T3 construct: enzyme fragment for PathHunter enzyme fragment complementation (EFC)
T3 sequence (P10275 1-920): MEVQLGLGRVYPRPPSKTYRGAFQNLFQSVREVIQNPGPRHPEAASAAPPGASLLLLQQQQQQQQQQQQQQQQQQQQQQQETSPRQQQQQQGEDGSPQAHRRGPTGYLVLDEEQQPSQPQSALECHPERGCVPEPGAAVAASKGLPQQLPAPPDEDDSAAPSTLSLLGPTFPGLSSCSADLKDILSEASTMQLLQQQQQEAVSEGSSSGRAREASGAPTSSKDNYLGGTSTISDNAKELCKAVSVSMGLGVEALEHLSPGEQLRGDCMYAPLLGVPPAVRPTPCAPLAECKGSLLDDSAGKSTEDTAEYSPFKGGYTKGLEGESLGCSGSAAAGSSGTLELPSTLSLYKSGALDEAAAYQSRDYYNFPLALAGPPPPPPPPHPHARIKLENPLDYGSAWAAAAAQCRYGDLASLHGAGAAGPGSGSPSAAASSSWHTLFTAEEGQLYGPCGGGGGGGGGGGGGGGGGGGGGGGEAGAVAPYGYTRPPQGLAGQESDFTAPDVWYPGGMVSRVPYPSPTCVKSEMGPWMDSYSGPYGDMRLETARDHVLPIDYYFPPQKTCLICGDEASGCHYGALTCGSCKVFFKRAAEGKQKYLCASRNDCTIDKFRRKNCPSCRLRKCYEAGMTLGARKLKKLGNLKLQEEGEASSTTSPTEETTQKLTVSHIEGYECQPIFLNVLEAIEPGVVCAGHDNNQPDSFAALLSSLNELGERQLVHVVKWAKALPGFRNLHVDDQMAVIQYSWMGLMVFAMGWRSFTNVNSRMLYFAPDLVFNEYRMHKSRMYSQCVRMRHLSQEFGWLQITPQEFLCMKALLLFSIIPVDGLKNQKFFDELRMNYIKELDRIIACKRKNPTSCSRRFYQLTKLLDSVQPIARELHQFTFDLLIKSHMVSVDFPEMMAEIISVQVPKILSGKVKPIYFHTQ
Description: In vitro pharmacological profiling of compounds was done against 78 functional assays for 47 common off-targets (30) by Eurofins DiscoverX Corporation (Fremont, CA, USA) using their SAFETYscan E/IC50 ELECT service (Cat Ref 87-1003DR, Safety47 Panel Dose Response). The following assays were performed: (1) GPCR cAMP modulation, (2) calcium mobilization, (3) nuclear hormone receptor assays, (4) KINOMEscan binding assays, (5) ion channel assays, (6) transporter assays and (7) enzymatic assays. Compounds were tested in a range of 10 concentrations, following a 3-fold serial dilution, starting from 10 μM. The assays were performed utilizing the PathHunter enzyme fragment complementation (EFC) technology, FLIPR®-based cellular screening assays, and KINOMEscan kinase binding assays.
Prior to testing, PathHunter NHR cell lines were expanded from freezer stocks and cells were seeded in a total volume of 20 μL into white walled 384-well microplates and incubated at 37° C. […] Microplates were read following signal generation with a PerkinElmer Envision™ instrument for chemiluminescent signal detection. Compound activity was analysed using CBIS data analysis suite (ChemInnovation, CA). For agonist mode assays, percentage activity was calculated using the following equation:

Chain of HTR1B (P28222 whole entry): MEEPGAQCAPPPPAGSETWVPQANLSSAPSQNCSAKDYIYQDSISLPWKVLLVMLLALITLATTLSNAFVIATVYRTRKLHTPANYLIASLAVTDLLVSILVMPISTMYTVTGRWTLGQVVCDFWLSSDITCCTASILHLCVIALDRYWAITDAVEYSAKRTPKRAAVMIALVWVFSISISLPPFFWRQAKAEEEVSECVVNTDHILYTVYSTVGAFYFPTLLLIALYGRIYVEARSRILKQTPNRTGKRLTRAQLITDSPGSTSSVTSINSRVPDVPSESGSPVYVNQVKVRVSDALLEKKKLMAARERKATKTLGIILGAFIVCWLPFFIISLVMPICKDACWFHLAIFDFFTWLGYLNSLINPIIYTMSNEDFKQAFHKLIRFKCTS
T1 sequence (P35968 20-1356): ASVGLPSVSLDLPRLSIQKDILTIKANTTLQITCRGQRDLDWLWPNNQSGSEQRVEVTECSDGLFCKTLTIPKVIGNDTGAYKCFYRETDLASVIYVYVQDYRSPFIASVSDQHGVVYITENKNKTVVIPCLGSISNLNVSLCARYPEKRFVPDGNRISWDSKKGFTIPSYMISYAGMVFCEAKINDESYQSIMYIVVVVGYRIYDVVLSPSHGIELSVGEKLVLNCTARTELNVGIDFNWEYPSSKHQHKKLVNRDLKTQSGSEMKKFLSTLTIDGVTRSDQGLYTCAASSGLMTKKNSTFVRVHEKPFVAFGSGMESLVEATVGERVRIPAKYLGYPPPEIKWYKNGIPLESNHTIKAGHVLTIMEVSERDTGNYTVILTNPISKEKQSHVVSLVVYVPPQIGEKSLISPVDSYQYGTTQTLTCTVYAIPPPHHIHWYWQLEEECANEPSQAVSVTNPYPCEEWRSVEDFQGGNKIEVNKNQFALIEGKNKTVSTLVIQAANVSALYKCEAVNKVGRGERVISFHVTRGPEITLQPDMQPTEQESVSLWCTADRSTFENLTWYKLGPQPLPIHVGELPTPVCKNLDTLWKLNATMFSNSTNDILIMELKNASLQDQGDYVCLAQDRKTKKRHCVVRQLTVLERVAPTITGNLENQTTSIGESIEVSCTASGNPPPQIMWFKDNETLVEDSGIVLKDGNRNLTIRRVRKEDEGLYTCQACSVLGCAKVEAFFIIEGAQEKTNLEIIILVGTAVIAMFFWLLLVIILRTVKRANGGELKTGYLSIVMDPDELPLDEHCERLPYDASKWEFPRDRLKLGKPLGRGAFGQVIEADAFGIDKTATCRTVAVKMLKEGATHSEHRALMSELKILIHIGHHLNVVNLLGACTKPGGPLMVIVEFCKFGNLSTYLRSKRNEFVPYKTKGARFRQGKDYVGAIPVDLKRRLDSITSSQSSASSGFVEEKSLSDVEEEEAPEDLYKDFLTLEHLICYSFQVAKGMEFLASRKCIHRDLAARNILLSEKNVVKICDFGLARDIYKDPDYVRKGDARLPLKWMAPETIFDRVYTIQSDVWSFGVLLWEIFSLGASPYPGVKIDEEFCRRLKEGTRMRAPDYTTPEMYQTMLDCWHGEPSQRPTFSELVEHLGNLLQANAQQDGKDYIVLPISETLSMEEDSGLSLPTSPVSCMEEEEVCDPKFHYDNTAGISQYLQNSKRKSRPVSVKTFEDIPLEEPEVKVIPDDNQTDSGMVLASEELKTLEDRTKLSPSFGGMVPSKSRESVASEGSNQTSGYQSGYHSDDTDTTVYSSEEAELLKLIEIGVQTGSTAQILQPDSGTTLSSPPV
Chain of nAChR (a4/b2) (P43681 29-627 limits assumed): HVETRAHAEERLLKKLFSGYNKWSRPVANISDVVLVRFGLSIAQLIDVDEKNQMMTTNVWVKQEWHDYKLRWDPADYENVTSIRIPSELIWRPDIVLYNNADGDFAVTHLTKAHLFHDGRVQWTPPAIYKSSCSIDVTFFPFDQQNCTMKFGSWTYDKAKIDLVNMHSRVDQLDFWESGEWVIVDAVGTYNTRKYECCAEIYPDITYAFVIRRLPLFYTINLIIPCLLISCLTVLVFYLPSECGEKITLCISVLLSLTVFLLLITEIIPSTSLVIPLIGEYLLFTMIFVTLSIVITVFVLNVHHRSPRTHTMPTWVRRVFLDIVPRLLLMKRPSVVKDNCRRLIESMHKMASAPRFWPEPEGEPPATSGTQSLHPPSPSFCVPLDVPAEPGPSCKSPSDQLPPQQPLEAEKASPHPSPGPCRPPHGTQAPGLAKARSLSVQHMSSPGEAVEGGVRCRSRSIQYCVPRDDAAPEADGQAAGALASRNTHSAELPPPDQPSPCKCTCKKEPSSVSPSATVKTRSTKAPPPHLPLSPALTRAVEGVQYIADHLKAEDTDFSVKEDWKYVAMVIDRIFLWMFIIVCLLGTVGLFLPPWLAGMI
Chain of nAChR (a4/b2) (P17787 26-502): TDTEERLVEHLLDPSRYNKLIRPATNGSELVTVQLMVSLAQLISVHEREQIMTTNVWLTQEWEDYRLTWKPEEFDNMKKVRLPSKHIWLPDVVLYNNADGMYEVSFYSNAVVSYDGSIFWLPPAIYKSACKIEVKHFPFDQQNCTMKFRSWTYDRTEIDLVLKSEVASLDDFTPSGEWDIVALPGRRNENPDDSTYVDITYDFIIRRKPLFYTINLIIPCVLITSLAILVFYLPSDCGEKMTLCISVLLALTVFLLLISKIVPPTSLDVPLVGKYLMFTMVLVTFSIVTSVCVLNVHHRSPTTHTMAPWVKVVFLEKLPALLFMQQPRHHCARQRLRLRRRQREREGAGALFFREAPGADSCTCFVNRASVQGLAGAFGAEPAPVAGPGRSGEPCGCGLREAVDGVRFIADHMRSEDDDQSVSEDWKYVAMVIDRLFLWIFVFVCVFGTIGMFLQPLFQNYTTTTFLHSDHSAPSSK
Chain of OPRD1 (P41143 whole entry): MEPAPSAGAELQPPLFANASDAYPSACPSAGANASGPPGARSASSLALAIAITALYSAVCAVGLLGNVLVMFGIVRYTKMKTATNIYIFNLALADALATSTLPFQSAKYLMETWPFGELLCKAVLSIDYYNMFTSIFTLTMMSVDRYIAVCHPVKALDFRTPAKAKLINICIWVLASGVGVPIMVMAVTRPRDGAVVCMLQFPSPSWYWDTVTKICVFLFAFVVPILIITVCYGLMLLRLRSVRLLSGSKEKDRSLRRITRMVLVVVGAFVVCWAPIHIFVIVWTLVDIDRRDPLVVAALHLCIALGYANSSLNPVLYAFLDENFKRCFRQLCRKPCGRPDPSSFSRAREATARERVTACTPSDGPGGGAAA

Compound	IC50 (HTR1B) [µM]	Emax (HTR1B) [%]	IC50 (VEGFR2; Binding VEGFR2 Inhibitor) [µM]	Emax (VEGFR2) [%]	IC50 (ADRA1A) [µM]	Emax (ADRA1A) [%]	IC50 (nAChR (a4/b2)) [µM]	Emax (nAChR (a4/b2)) [%]	EC50 (OPRD1) [µM]	Emax (OPRD1) [%]	Emax (VEGFR2; Binding VEGFR2 Inhibitor) [%]	EC50 (AR) [µM]	Emax (AR; NHR Nuclear Translocation AR Agonist, read-out: Max response) [%]
CC(C)(C)c1ccc(C#CC(O)c2ccccc2)cc1 (racemic) [Compound 3.3, rac-3-(4-(tert-butyl)phenyl)-1-phenylprop-2-yn-1-ol]	6.4	66.2	> 10	0	> 10	0	6.9	73.9	> 10	3.6	–	–	–
Clc1cccc(C#Cc2n[nH]c3ncccc23)c1 [Compound 10.1, 3-((3-chlorophenyl)ethynyl)-1H-pyrazolo[3,4-b]pyridine]	> 10	0	> 10	–	> 10	0	> 10	1.5	> 10	12.1	5.4	> 10	0
